Test results reported in ChEMBL document CHEMBL1201862, “PubChem BioAssay data set” (2004).
Calls of active or inactive are those of the source.

Assays:
[1] = biological target: Voltage-dependent T-type calcium channel subunit alpha-1H (Homo sapiens, UniProt O95180); assay type: functional;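 further: channel activity triggered by adding a high calcium stimulation buffer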
[2] = biological target: T1, Ubiquitin-conjugating enzyme E2 N (Homo sapiens, UniProt P61088); assay type: functional;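 further: Dose-response confirmation in a TR-FRET assay detecting UBC13-driven polyubiquitin chain formation, inhibition measured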
T1 sequence (P61088 whole entry): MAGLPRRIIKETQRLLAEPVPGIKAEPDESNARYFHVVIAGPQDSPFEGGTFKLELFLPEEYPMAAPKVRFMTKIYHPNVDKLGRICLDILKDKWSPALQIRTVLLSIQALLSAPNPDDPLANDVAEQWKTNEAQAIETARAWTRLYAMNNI

[3] = intracellular Trypanosoma cruzi inhibitors in host cells – cell-based, plate reader, cherry-pick samples, set 3, dose response (AID 651818); assay type: functional;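 further: compounds incubated with infected cells for about four days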
[4] = biological target: T2, Adenosylmethionine-8-amino-7-oxononanoate aminotransferase (Mycobacterium tuberculosis, UniProt P9WQ81); experiment: Mycobacterium tuberculosis BioA enzyme inhibitor Measured in Biochemical System Using Plate Reader - 2163-02_Inhibitor_Dose_CherryPick_Activity.; assay type: functional, Mycobacterium tuberculosis UT205
T2 sequence (P9WQ81 whole entry): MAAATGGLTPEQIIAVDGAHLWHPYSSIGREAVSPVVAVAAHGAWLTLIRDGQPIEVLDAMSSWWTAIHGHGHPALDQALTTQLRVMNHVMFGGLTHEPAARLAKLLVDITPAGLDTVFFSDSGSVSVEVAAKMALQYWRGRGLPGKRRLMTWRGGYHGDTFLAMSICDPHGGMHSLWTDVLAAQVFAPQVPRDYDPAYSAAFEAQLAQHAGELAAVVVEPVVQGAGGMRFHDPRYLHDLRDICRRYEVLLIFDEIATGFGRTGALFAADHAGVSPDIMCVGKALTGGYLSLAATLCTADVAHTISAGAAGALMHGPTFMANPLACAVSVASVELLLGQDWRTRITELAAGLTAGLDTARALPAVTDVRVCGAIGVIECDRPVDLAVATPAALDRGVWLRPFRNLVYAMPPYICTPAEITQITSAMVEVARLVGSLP

[5] = Luminescence Cell-Based Dose Retest to Confirm Inhibitors of Cancer Stem Cells. [Related pubchem assays (depositor defined):AID2717, AID2721]; assay type: functional; conditions: Homo sapiens
[6] = biological target: T3, Protein skinhead-1 (Caenorhabditis elegans, UniProt P34707); assay type: functional
T3 sequence (P34707 whole entry): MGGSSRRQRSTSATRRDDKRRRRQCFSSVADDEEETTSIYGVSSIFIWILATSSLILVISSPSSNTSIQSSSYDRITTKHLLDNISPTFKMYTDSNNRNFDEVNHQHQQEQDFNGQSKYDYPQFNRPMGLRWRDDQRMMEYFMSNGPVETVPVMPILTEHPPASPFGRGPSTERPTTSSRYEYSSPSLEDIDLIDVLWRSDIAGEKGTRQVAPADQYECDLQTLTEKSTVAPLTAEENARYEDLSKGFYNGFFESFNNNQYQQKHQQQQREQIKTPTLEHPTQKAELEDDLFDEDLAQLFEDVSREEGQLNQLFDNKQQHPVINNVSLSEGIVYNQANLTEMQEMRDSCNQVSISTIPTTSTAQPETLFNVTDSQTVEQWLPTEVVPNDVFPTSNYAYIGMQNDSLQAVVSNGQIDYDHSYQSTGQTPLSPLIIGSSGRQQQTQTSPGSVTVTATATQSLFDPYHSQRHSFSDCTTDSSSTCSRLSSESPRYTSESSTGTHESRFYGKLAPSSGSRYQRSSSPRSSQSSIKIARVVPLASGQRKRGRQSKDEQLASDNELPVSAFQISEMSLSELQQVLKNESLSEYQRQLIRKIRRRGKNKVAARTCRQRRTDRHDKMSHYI

[7] = viability loss in HEK293 cells – cell-based, plate reader, cherry-picked samples, cytotoxicity control, dose response (AID 743446); assay type: functional
[8] = blockade of melanocortin 4 receptor signaling – cell-based, plate reader, cherry pick, counter-screen for LGR2 antagonist project, dose response (AID 743444); assay type: functional;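 further: transfected HEK 293 cells stimulated with alpha-MSH peptide; potency of inhibitors of the alpha-MSH evoked signal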
[9] = blockers of bursicon-stimulated LGR2 cAMP reporter – cell-based, HEK293, CRE-luciferase reporter, cherry pick, set 2, dose response (AID 743343); assay type: functional;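 further: transfected cells were stimulated with diluted bursicon conditioned medium after compound addition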
[10] = test system: BJ; experiment: BJ-TERT-LT-ST fibroblast viability loss – cell-based, RAS-independent, luminescence, dose response (AID 1935); assay type: functional; conditions: Homo sapiens;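 further: BJ fibroblasts immortalized with TERT plus LT and ST oncogenes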
[11] = DRD fibroblast viability loss – cell-based, non-viral oncogenic, luminescence, dose response (AID 1934); assay type: functional; conditions: Homo sapiens
[12] = test system: BJ; experiment: cells; assay type: functional, cell-based; conditions: Homo sapiens
[13] = test system: BJ; experiment: BJ-TERT fibroblast viability loss – cell-based, RAS-independent, luminescence, dose response (AID 1933); assay type: functional; conditions: Homo sapiens
[14] = off-target signal loss in HeLa-CEM21 co-culture – HeLa F-luc CTL cells, cherry-picked, counter-screen for HIV-1 Env fusion inhibitor project, dose response (AID 652040); assay type: functional, cell-based;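 further: potency for signal decrease marking cytotoxic or nonspecific inhibition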
[15] = blockers of HIV-1 ZM109 envelope-driven cell-cell fusion – HeLa effector, CEM target cells, luciferase, cherry-pick, dose response (AID 652058); assay type: functional, cell-based;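 further: luciferase signal from HIV-1 Env mediated cell-cell fusion of effector and target cells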
[16] = blockers of HIV-1 envelope-mediated cell-cell fusion – cherry-pick, dose response (AID 652057); assay type: functional, cell-based
[17] = HIV-1 AD8 envelope cell-cell fusion blockers – cherry-pick, dose response (AID 652062); assay type: functional, cell-based;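 further: luciferase signal from cell-cell fusion driven by HIV-1 clade B AD8 Env; potency is for inhibitors of fusion seen as a drop in luminescence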

Sequence of Voltage-dependent T-type calcium channel subunit alpha-1H (O95180 whole entry): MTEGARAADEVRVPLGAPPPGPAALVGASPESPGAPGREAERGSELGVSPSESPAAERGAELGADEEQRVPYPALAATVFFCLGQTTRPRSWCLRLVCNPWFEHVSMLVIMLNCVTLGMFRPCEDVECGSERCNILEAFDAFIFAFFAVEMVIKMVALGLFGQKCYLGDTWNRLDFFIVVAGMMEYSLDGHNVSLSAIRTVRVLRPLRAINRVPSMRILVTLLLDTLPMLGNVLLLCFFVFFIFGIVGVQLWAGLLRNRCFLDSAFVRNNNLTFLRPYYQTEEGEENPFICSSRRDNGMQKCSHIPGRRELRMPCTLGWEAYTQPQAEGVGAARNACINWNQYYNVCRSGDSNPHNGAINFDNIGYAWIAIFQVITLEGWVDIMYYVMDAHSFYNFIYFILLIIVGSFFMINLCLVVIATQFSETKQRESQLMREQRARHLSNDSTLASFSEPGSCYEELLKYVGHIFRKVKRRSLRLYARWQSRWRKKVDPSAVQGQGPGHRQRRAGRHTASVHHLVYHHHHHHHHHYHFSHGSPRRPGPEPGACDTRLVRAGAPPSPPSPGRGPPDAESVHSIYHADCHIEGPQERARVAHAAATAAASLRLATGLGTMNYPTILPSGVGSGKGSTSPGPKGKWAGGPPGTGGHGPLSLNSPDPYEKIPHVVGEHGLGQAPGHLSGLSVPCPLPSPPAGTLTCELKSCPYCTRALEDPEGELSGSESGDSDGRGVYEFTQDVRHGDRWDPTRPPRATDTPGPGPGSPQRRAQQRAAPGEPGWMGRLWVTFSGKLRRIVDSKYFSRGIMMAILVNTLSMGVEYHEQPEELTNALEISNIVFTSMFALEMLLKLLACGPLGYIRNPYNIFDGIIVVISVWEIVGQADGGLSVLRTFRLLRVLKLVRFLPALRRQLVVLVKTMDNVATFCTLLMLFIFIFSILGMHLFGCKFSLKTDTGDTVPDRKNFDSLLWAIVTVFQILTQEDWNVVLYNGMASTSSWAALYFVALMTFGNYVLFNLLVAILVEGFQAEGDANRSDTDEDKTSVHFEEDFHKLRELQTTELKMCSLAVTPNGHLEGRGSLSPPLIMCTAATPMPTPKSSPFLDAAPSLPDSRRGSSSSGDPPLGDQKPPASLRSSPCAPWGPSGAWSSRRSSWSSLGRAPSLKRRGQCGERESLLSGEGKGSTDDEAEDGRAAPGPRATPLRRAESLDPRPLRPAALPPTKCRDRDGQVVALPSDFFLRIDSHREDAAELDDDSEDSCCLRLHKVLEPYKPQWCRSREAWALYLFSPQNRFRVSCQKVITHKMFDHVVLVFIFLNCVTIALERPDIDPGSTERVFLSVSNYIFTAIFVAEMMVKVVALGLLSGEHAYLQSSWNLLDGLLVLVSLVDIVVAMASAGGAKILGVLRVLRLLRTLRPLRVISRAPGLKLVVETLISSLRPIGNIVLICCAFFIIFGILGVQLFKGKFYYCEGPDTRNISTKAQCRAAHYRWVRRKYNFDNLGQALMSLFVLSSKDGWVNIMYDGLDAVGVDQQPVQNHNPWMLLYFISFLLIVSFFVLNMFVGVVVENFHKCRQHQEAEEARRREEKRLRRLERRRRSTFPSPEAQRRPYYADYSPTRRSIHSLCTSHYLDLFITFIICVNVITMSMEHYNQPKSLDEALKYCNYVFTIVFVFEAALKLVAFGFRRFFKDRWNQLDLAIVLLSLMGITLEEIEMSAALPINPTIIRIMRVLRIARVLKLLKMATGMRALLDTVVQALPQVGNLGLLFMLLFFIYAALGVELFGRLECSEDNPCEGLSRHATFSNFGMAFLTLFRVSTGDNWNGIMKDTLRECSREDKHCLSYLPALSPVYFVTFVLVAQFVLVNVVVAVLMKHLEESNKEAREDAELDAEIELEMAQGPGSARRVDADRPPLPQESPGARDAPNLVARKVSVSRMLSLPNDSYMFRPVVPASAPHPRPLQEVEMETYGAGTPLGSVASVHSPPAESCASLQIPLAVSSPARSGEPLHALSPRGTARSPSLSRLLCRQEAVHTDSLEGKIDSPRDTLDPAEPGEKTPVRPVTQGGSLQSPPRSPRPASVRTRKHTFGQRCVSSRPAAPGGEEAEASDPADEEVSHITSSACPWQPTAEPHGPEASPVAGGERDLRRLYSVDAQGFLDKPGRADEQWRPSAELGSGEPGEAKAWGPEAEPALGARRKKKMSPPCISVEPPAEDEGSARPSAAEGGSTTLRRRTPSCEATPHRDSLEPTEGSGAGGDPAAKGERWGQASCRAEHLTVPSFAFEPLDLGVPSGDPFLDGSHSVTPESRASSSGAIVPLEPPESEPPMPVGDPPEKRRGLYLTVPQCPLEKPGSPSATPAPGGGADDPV

O=C(Nc1cccc(F)c1)C1CCN(c2nnnn2-c2ccccc2)CC1
EC50 [1]: 53.6 µM (active)

CCC(C)(C)NC(=O)CN(C(=O)c1snc(C(N)=O)c1N)c1ccc2c(c1)OCCO2
IC50 [2]: > 20 µM (inactive)

C[C@@H]1CN([C@@H](C)CO)C(=O)Cc2cc(NC(=O)Nc3ccccc3)ccc2O[C@@H]1CN(C)Cc1ccc(C(=O)Nc2ccccc2N)cc1
AC50 [3]: 2.04 µM (active)

O=C(CSc1nnc(-c2ccncc2)n1-c1ccc(Cl)cc1)NCc1cccs1
AC50 [4]: 9.86 µM (active)

COc1cc(OC)cc(-c2sc3ccc(OC)cc3c2C#CC2(N)CCCCC2)c1
AC50 [5]: 2.96 µM (active) | IC50 [2]: > 20 µM (inactive)

NC(=S)N=Nc1c(O)n(CCCl)c2ccc(Br)cc12
IC50 [2]: > 20 µM (inactive)

COc1ccccc1N1CCN(CC(O)COc2cccc3ccccc23)CC1 (stereo not drawn) [NAFTOPIDIL]
EC50 [1]: 3.72 µM (active)

O=C(CSc1ccc(Cl)cc1)N1CCN(c2ncc(C(F)(F)F)cc2Cl)CC1
IC50 [6]: > 100 µM (inactive) | EC50 [1]: 5.86 µM (active)

Clc1ccc(OCc2nc(-c3ccccn3)no2)c(Br)c1
AC50 [7]: 27.6 µM (active) | AC50 [8]: 10.6 µM (active) | AC50 [9]: 6.73 µM (active)

CCOc1cc(C2C(C#N)=C(N)OC(C)=C2C(C)=O)c(Br)c(Br)c1OC(C)C (stereo not drawn)
EC50 [10]: 2.72 µM (inconclusive) | EC50 [11]: 3.46 µM (active) | EC50 [12]: 14 µM (inconclusive) | EC50 [13]: 2.17 µM (active)

CCOC(=O)c1c(CSc2ccsc2)n(C)c2cc(Br)c(O)c(CN(C)C)c12
AC50 [14]: 2.45 µM (active) | AC50 [15]: 2.34 µM (active) | AC50 [16]: 1.3 µM (active) | AC50 [17]: 4.04 µM (active)

CCN(Cc1ccccc1)C(=O)CCc1nc(-c2ccc(C)cc2)no1
EC50 [1]: 4.8 µM (active)

C[C@@H]1CN([C@@H](C)CO)C(=O)c2cccc(NS(=O)(=O)c3ccc(Cl)cc3)c2O[C@@H]1CN(C)Cc1ccc(Oc2ccccc2)cc1
AC50 [3]: 4.87 µM (active)
